The target of one test is T1, rDdGSTA2 (Dictyostelium discoideum, UniProt Q556G3).
T1 construct: gene gsta2-1
T1 sequence (Q556G3 1-198): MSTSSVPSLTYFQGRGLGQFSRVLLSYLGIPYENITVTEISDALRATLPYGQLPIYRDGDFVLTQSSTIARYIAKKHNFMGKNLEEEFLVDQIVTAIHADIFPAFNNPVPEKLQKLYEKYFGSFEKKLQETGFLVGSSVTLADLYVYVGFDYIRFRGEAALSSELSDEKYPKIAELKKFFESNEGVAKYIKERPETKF
The experiment in a line: CDNB conjugation, absorbance at […] nm, Michaelis-Menten fit. In kind it is biochemical. The following applies: saturating GSH; pH 7.5; 25°C.

The target of another test is T2, rDdGSTA3 (Dictyostelium discoideum, UniProt Q54VI4).
T2 construct: gene gsta3
T2 sequence (Q54VI4 1-204): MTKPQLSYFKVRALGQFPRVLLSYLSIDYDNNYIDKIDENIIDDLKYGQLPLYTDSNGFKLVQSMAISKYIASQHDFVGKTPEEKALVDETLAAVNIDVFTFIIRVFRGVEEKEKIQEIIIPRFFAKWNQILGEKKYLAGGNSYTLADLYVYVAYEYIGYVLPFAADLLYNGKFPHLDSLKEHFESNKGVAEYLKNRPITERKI
The test is described as above. Conditions: saturating GSH; pH 7.5; 25°C. Format: biochemical.

SMILES strings stand for the structures.

What is called Km is the concentration of substrate that gives half-maximal velocity.

Regarding `O=[N+]([O-])c1ccc(Cl)c([N+](=O)[O-])c1` [CDNB, 1-chloro-2,4-dinitrobenzene], the Km at rDdGSTA2 was determined as 1290 ± 200 µM; on rDdGSTA3, 562 ± 98.1 µM.

These data come from article PMC8081208, “Characterization of glutathione S-transferase enzymes in Dictyostelium discoideum suggests a functional role for the GSTA2 isozyme in cell proliferation and development” (PLoS ONE, 2021).
